Measurements published in PubChem BioAssay (NCI).
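Cultured in 96-well plates, cells were exposed to test compound for 48 hours across five concentrations. TGI denotes the concentration required for complete inhibition of growth.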

Experiments:
Assay in all cases: DTP human tumour cell line panel, 48 h
786-0 renal = tested on: 786-0 renal
A498 renal = tested on: A498 renal
A549 NSCLC = tested on: A549 NSCLC
ACHN renal = tested on: ACHN renal
BT-549 breast = tested on: BT-549 breast
CAKI-1 renal = tested on: CAKI-1 renal
CCRF-CEM leukemia = tested on: CCRF-CEM leukemia
COLO 205 colon = tested on: COLO 205 colon
DU-145 prostate = tested on: DU-145 prostate
EKVX NSCLC = tested on: EKVX NSCLC
HCT-116 colon = tested on: HCT-116 colon
HCT-15 colon = tested on: HCT-15 colon
HL-60(TB) leukemia = tested on: HL-60(TB) leukemia
HOP-62 NSCLC = tested on: HOP-62 NSCLC
HOP-92 NSCLC = tested on: HOP-92 NSCLC
HT29 colon = tested on: HT29 colon
IGROV1 ovarian = tested on: IGROV1 ovarian
K-562 leukemia = tested on: K-562 leukemia
KM12 colon = tested on: KM12 colon
LOX IMVI melanoma = tested on: LOX IMVI melanoma
M14 melanoma = tested on: M14 melanoma
MALME-3M melanoma = tested on: MALME-3M melanoma
MCF7 breast = tested on: MCF7 breast
MDA-MB-231 breast = tested on: MDA-MB-231 breast
MDA-MB-435 = tested on: MDA-MB-435
MDA-N = tested on: MDA-N
MOLT-4 leukemia = tested on: MOLT-4 leukemia
NCI-H226 lung = tested on: NCI-H226 lung
NCI-H23 lung = tested on: NCI-H23 lung
NCI-H460 lung = tested on: NCI-H460 lung
NCI-H522 lung = tested on: NCI-H522 lung
NCI/ADR-RES ovarian = tested on: NCI/ADR-RES ovarian
OVCAR-3 ovarian = tested on: OVCAR-3 ovarian
OVCAR-4 ovarian = tested on: OVCAR-4 ovarian
OVCAR-5 ovarian = tested on: OVCAR-5 ovarian
OVCAR-8 ovarian = tested on: OVCAR-8 ovarian
PC-3 prostate = tested on: PC-3 prostate
RPMI-8226 leukemia = tested on: RPMI-8226 leukemia
RXF 393 renal = tested on: RXF 393 renal
SF-295 CNS = tested on: SF-295 CNS
SK-MEL-2 melanoma = tested on: SK-MEL-2 melanoma
SK-MEL-28 melanoma = tested on: SK-MEL-28 melanoma
SK-MEL-5 melanoma = tested on: SK-MEL-5 melanoma
SN12C renal = tested on: SN12C renal
SNB-19 CNS = tested on: SNB-19 CNS
SW-620 colon = tested on: SW-620 colon
T-47D breast = tested on: T-47D breast
TK-10 renal = tested on: TK-10 renal
U251 CNS = tested on: U251 CNS
UACC-257 melanoma = tested on: UACC-257 melanoma
UACC-62 melanoma = tested on: UACC-62 melanoma
UO-31 renal = tested on: UO-31 renal
HCC-2998 colon = tested on: HCC-2998 colon
SF-268 CNS = tested on: SF-268 CNS
SF-539 CNS = tested on: SF-539 CNS
SK-OV-3 ovarian = tested on: SK-OV-3 ovarian
SR leukemia = tested on: SR leukemia
HS 578T breast = tested on: HS 578T breast

NC(=S)Nc1ccc(S(=O)(=O)Nc2ccc(S(N)(=O)=O)cc2)cc1
TGI (786-0 renal): > 100 µM
TGI (A498 renal): > 100 µM
TGI (A549 NSCLC): > 100 µM
TGI (ACHN renal): > 100 µM
TGI (BT-549 breast): > 100 µM
TGI (CAKI-1 renal): > 100 µM
TGI (CCRF-CEM leukemia): > 100 µM
TGI (COLO 205 colon): > 100 µM
TGI (DU-145 prostate): > 100 µM
TGI (EKVX NSCLC): > 100 µM
TGI (HCT-116 colon): > 100 µM
TGI (HCT-15 colon): > 100 µM
TGI (HL-60(TB) leukemia): > 100 µM
TGI (HOP-62 NSCLC): > 100 µM
TGI (HOP-92 NSCLC): > 100 µM
TGI (HT29 colon): > 100 µM
TGI (IGROV1 ovarian): > 100 µM
TGI (K-562 leukemia): > 100 µM
TGI (KM12 colon): > 100 µM
TGI (LOX IMVI melanoma): > 100 µM
TGI (M14 melanoma): > 100 µM
TGI (MALME-3M melanoma): > 100 µM
TGI (MCF7 breast): > 100 µM
TGI (MDA-MB-231 breast): > 100 µM
TGI (MDA-MB-435): > 100 µM
TGI (MDA-N): > 100 µM
TGI (MOLT-4 leukemia): > 100 µM
TGI (NCI-H226 lung): > 100 µM
TGI (NCI-H23 lung): > 100 µM
TGI (NCI-H460 lung): > 100 µM
TGI (NCI-H522 lung): > 100 µM
TGI (NCI/ADR-RES ovarian): > 100 µM
TGI (OVCAR-3 ovarian): > 100 µM
TGI (OVCAR-4 ovarian): > 100 µM
TGI (OVCAR-5 ovarian): > 100 µM
TGI (OVCAR-8 ovarian): > 100 µM
TGI (PC-3 prostate): > 100 µM
TGI (RPMI-8226 leukemia): > 100 µM
TGI (RXF 393 renal): > 100 µM
TGI (SF-295 CNS): > 100 µM
TGI (SK-MEL-2 melanoma): > 100 µM
TGI (SK-MEL-28 melanoma): > 100 µM
TGI (SK-MEL-5 melanoma): > 100 µM
TGI (SN12C renal): > 100 µM
TGI (SNB-19 CNS): > 100 µM
TGI (SW-620 colon): > 100 µM
TGI (T-47D breast): > 100 µM
TGI (TK-10 renal): > 100 µM
TGI (U251 CNS): > 100 µM
TGI (UACC-257 melanoma): > 100 µM
TGI (UACC-62 melanoma): > 100 µM
TGI (UO-31 renal): > 100 µM

CC(C)Oc1ccc2c(c1)OCC1Cc3ccccc3OC21 (stereo unspecified)
TGI (786-0 renal): > 100 µM
TGI (A498 renal): > 100 µM
TGI (A549 NSCLC): > 100 µM
TGI (BT-549 breast): > 100 µM
TGI (CAKI-1 renal): > 100 µM
TGI (CCRF-CEM leukemia): > 100 µM
TGI (DU-145 prostate): > 100 µM
TGI (EKVX NSCLC): > 100 µM
TGI (HCC-2998 colon): > 100 µM
TGI (HCT-116 colon): > 100 µM
TGI (HCT-15 colon): 46.2 µM
TGI (HL-60(TB) leukemia): > 100 µM
TGI (HOP-62 NSCLC): > 100 µM
TGI (HOP-92 NSCLC): > 100 µM
TGI (HT29 colon): > 100 µM
TGI (IGROV1 ovarian): > 100 µM
TGI (K-562 leukemia): > 100 µM
TGI (KM12 colon): > 100 µM
TGI (LOX IMVI melanoma): > 100 µM
TGI (M14 melanoma): > 100 µM
TGI (MALME-3M melanoma): > 100 µM
TGI (MCF7 breast): > 100 µM
TGI (MDA-MB-231 breast): > 100 µM
TGI (MDA-MB-435): > 100 µM
TGI (MDA-N): > 100 µM
TGI (MOLT-4 leukemia): > 100 µM
TGI (NCI-H226 lung): > 100 µM
TGI (NCI-H23 lung): > 100 µM
TGI (NCI-H522 lung): > 100 µM
TGI (NCI/ADR-RES ovarian): > 100 µM
TGI (OVCAR-3 ovarian): > 100 µM
TGI (OVCAR-5 ovarian): > 100 µM
TGI (OVCAR-8 ovarian): > 100 µM
TGI (PC-3 prostate): > 100 µM
TGI (RPMI-8226 leukemia): > 100 µM
TGI (SF-268 CNS): > 100 µM
TGI (SF-295 CNS): > 100 µM
TGI (SF-539 CNS): > 100 µM
TGI (SK-MEL-2 melanoma): > 100 µM
TGI (SK-MEL-5 melanoma): 47.5 µM
TGI (SK-OV-3 ovarian): > 100 µM
TGI (SN12C renal): > 100 µM
TGI (SR leukemia): > 100 µM
TGI (SW-620 colon): > 100 µM
TGI (T-47D breast): > 100 µM
TGI (TK-10 renal): > 100 µM
TGI (U251 CNS): > 100 µM
TGI (UACC-257 melanoma): > 100 µM
TGI (UACC-62 melanoma): > 100 µM
TGI (UO-31 renal): > 100 µM

COc1cc(OC)cc(-c2nc3cc(F)ccc3s2)c1
TGI (786-0 renal): 23.5 µM
TGI (A498 renal): 62.9 µM
TGI (A549 NSCLC): > 100 µM
TGI (ACHN renal): 29.8 µM
TGI (BT-549 breast): 24.7 µM
TGI (CAKI-1 renal): > 100 µM
TGI (CCRF-CEM leukemia): > 100 µM
TGI (COLO 205 colon): > 100 µM
TGI (DU-145 prostate): > 100 µM
TGI (EKVX NSCLC): 43.5 µM
TGI (HCC-2998 colon): 0.0449 µM
TGI (HCT-116 colon): 38.8 µM
TGI (HCT-15 colon): > 100 µM
TGI (HT29 colon): > 100 µM
TGI (IGROV1 ovarian): 43.6 µM
TGI (KM12 colon): > 100 µM
TGI (LOX IMVI melanoma): > 100 µM
TGI (M14 melanoma): > 100 µM
TGI (MALME-3M melanoma): > 100 µM
TGI (MCF7 breast): > 100 µM
TGI (MDA-MB-231 breast): 40.3 µM
TGI (MDA-MB-435): > 100 µM
TGI (MDA-N): > 100 µM
TGI (NCI-H226 lung): 37.8 µM
TGI (NCI-H23 lung): 28.4 µM
TGI (NCI-H460 lung): > 100 µM
TGI (NCI-H522 lung): 45.5 µM
TGI (NCI/ADR-RES ovarian): > 100 µM
TGI (OVCAR-3 ovarian): 86.3 µM
TGI (OVCAR-4 ovarian): > 100 µM
TGI (OVCAR-5 ovarian): > 100 µM
TGI (OVCAR-8 ovarian): 97.8 µM
TGI (PC-3 prostate): > 100 µM
TGI (RPMI-8226 leukemia): > 100 µM
TGI (RXF 393 renal): 36.6 µM
TGI (SF-268 CNS): 32 µM
TGI (SF-295 CNS): 23.5 µM
TGI (SF-539 CNS): 31.3 µM
TGI (SK-MEL-2 melanoma): 62.5 µM
TGI (SK-MEL-5 melanoma): > 100 µM
TGI (SK-OV-3 ovarian): 31.4 µM
TGI (SN12C renal): > 100 µM
TGI (SNB-19 CNS): 49.2 µM
TGI (SW-620 colon): > 100 µM
TGI (T-47D breast): > 100 µM
TGI (TK-10 renal): 33.2 µM
TGI (U251 CNS): 33.9 µM
TGI (UACC-257 melanoma): > 100 µM
TGI (UACC-62 melanoma): 41.7 µM
TGI (UO-31 renal): > 100 µM

CCn1c2ccccc2n2c(=O)c3c(c(C#N)c12)CCCC3
TGI (786-0 renal): > 100 µM
TGI (A498 renal): > 100 µM
TGI (A549 NSCLC): > 100 µM
TGI (ACHN renal): > 100 µM
TGI (BT-549 breast): > 100 µM
TGI (CAKI-1 renal): > 100 µM
TGI (CCRF-CEM leukemia): > 100 µM
TGI (COLO 205 colon): > 100 µM
TGI (DU-145 prostate): > 100 µM
TGI (EKVX NSCLC): > 100 µM
TGI (HCC-2998 colon): > 100 µM
TGI (HCT-116 colon): > 100 µM
TGI (HCT-15 colon): > 100 µM
TGI (HL-60(TB) leukemia): > 100 µM
TGI (HOP-92 NSCLC): > 100 µM
TGI (HS 578T breast): > 100 µM
TGI (HT29 colon): > 100 µM
TGI (IGROV1 ovarian): > 100 µM
TGI (K-562 leukemia): > 100 µM
TGI (KM12 colon): > 100 µM
TGI (LOX IMVI melanoma): > 100 µM
TGI (M14 melanoma): > 100 µM
TGI (MALME-3M melanoma): > 100 µM
TGI (MCF7 breast): > 100 µM
TGI (MDA-MB-231 breast): > 100 µM
TGI (MDA-MB-435): > 100 µM
TGI (MDA-N): > 100 µM
TGI (MOLT-4 leukemia): > 100 µM
TGI (NCI-H226 lung): > 100 µM
TGI (NCI-H23 lung): > 100 µM
TGI (NCI-H460 lung): > 100 µM
TGI (NCI-H522 lung): > 100 µM
TGI (NCI/ADR-RES ovarian): > 100 µM
TGI (OVCAR-3 ovarian): > 100 µM
TGI (OVCAR-4 ovarian): > 100 µM
TGI (OVCAR-5 ovarian): > 100 µM
TGI (OVCAR-8 ovarian): > 100 µM
TGI (PC-3 prostate): > 100 µM
TGI (SF-268 CNS): > 100 µM
TGI (SF-295 CNS): > 100 µM
TGI (SF-539 CNS): > 100 µM
TGI (SK-MEL-2 melanoma): > 100 µM
TGI (SK-MEL-28 melanoma): > 100 µM
TGI (SK-MEL-5 melanoma): > 100 µM
TGI (SK-OV-3 ovarian): > 100 µM
TGI (SN12C renal): > 100 µM
TGI (SNB-19 CNS): > 100 µM
TGI (SW-620 colon): > 100 µM
TGI (T-47D breast): > 100 µM
TGI (TK-10 renal): > 100 µM
TGI (U251 CNS): > 100 µM
TGI (UACC-257 melanoma): > 100 µM
TGI (UACC-62 melanoma): > 100 µM
TGI (UO-31 renal): > 100 µM
